In patent publication US20230295235A1, “COMPOUNDS TARGETING ALPHA4-BETA7 INTEGRIN” (ZEALAND PHARMA A/S, priority 2020, published 2023):

Test system: integrin α4β7+ T helper memory lymphocytes in mesenteric lymph nodes
Experiment: In vivo T lymphocyte trafficking analysis in DSS mouse model of colitis
Procedure: Animal care: The animal care facility employed is accredited by the Canadian Council on Animal Care (CCAC). This study was approved by a certified Animal Care Committee and complied with CACC standards and regulations governing the use of animals for research. The animals were housed under standardized environmental conditions. A standard certified commercial rodent diet was provided ad libitum. Tap water was provided ad libitum at all times.
Dextran sulfate sodium (DSS) was administered to C57BL/6 female mice for five days through addition to their drinking water at 3%. Body weight and disease activity index (“DAI”) were measured on day 5 in order to distribute DSS-treated animals in uniform groups prior to dosing. DAI was scored based on the severity of three specific symptoms associated with colitis: 1- blood in stool (negative hemoccult, positive hemoccult, blood traces in stool visible, rectal bleeding); 2- stool consistency (normal, soft but still formed, very soft, diarrhea); 3- body weight loss.
From day 6 to day 9, the compound of Example 1 or the vehicle were administered orally daily at 5 mL/kg. […] Cell populations were then analyzed using FACSCanto cytometer and gating on CD4+, CD44^hi, CD45RB^low, α4β7+.
Statistical analysis was performed using GraphPad Prism. Differences among groups were evaluated by two-way ANOVA, with a 95% confidence interval. […]

CC(C)C[C@@H]1NC(=O)c2ccc(-c3ccc(N4CCN(C(=O)c5ccccc5-c5ccccc5C(=O)N5CCN(c6ccc(-c7ccc8cc7CNC(=O)[C@@H]7CCCN7[C@H](C(=O)NC(C)(C)C)[C@H](C)NC(=O)[C@H]([C@@H](C)O)NC(=O)[C@H](CC(=O)O)NC(=O)[C@H](CC(C)C)NC8=O)cc6)CC5)CC4)cc3)c(c2)CNC(=O)[C@@H]2CCCN2[C@H](C(=O)NC(C)(C)C)[C@H](C)NC(=O)[C@H]([C@@H](C)O)NC(=O)[C@H](CC(=O)O)NC1=O [Example 1, 2,2′-((S,S,S,S,S,S,1^2,8S,11S,14S,17S,18S)-((([1,1′-Biphenyl]-2,2′-Dicarbonyl)-Bis(Piperazine-4,1-Diyl))Bis(4,1-Phenylene))Bis(18-(Tert-Butylcarbamoyl)-14-((R)-1-Hydroxyethyl)-8-Isobutyl-17-Methyl-2,6,9,12,15-Pentaoxo-3,7,10,13,16-Pentaaza-1(2,1)-Pyrrolidina-5(1,3)-Benzenacyclooctadecaphane-5^6,11-Diyl))-Diacetic Acid]
reduction in α4β7+ T cells in the mesenteric lymph nodes (100 mg/kg orally daily day 6 to 9, DSS-treated C57BL/6 female mice, vs DSS alone): 60%
detection of integrin α4β7+ T helper memory lymphocytes in the mesenteric lymph nodes (MLN) (10, 30 or 100 mg/kg orally daily day 6 to 9, DSS-treated mice): reduced the detection of integrin α4β7+ T helper memory lymphocytes
